In patent EP0326329B1, “Quinazoline derivatives useful as insecticides” (Dow AgroSciences LLC, priority 1988, dated 1989):

Experiments:
Assay type in all cases: in vivo
[1] = system: Erysiphe graminis tritici (powdery mildew); test: Greenhouse Test 1, foliar spray fungicide screen (POWD MDEW), host wheat; settings: disease control rating, 400 ppm (+++ at 100 ppm)
[2] = system: melon aphids (Aphis gossypii Glover); test: Mite/insect screen, sprayed squash cotyledons (MA); settings: Aphis gossypii, percent mortality, read-out: MA RESULTS %; for mortality at 200 ppm: spray rate 200 ppm; for mortality at 400 ppm: spray rate 400 ppm
Protocol: (§1) The compounds of Examples 1-203 were tested for miticidal and insecticidal activity in the following mite/insect screen.
(§2) Each test compound was formulated by dissolving the compound in acetone/alcohol (50:50) mixture containing 23 g of "TOXIMUL R" (sulfonate/nonionic emulsifier blend) and 13 g of "TOXIMUL S" (sulfonate/nonionic emulsifier blend) per liter. These mixtures were then diluted with water to give the indicated concentrations.
(§3) Other plants in the same treatment pot were left uninfested. The leaves were then sprayed with 5 ml of test solution using a DeVilbiss atomizing sprayer at 10 psi. Both surfaces of the leaves were covered until runoff, and then allowed to dry for one hour. Two uninfested leaves were then excised and placed into a Petri dish containing larval southern armyworm (Spodopetra eridania Cramer).
(§4) After standard exposure periods, percent mortality and phytotoxicity were evaluated. […]

[3] = system: Pyricularia oryzae (rice blast); settings: disease control rating, foliar spray, host rice; 400 ppm (+++ at 100 ppm)
[4] = system: southern armyworm (Spodopetra eridania Cramer); test: Mite/insect screen, sprayed squash leaves (SAW); settings: Spodoptera eridania, percent mortality, read-out: SAW RESULTS %; for mortality at 200 ppm: spray rate 200 ppm; for mortality at 400 ppm: spray rate 400 ppm
Protocol: as §1, §2, §3, §4

[5] = system: Puccinia recondita tritici (leaf rust); test: Greenhouse Test 1, foliar spray fungicide screen (LEAF RUST), host wheat; settings: disease control rating, 400 ppm (+++ at 100 ppm)
[6] = system: Southern corn rootworm (Diabrotica undecimpuctata howardi Barber); test: Mite/insect screen, soil treatment (CRW); settings: Diabrotica, percent mortality, soil treatment, read-out: CRW RESULTS %; for mortality at 12 ppm: CRW rate 12.00 ppm; for mortality at 24 ppm: CRW rate 24.00 ppm
Protocol: as §1, §2
Activity on Southern corn rootworm (Diabrotica undecimpuctata howardi Barber) was evaluated by adding two ml of tap water, a presoaked corn seed, and 15 g of dry sandy soil to a one ounce plastic container. The soil was treated with 1 mL of test solution containing a pre-determined concentration of test compound. After six to 12 hours of drying, five 2-3 instar corn rootworm larvae were added to the individual cups, which were then capped and held at 23°C.
as §4

[7] = system: Twospotted spider mites (Tetranychus urticae Koch); test: Mite/insect screen, sprayed squash cotyledons (SM); settings: Tetranychus urticae, percent mortality, read-out: SM RESULTS %; for mortality at 200 ppm: spray rate 200 ppm; for mortality at 400 ppm: spray rate 400 ppm
Protocol: as §1, §2, §3, §4

[8] = system: Pseudoperonospora cubensis (downy mildew); test: Greenhouse Test 1, foliar spray fungicide screen (DOWN MDEW), host squash; settings: disease control rating, 400 ppm (+++ at 100 ppm)
[9] = system: Botrytis cinerea (gray mold); test: Greenhouse Test 1, foliar spray fungicide screen (GRAY MOLD), host grape berries; settings: disease control rating, 400 ppm (+++ at 100 ppm)

Structure (SMILES): CC(C)C(COc1ncnc2ccccc12)c1ccccc1 (stereo not shown) [Example 165, 4-(3-methyl-2-phenylbutoxy)quinazoline]
- POWD MDEW [1]: ++ (++ = 90-100% control at 400 ppm)
- mortality at 200 ppm [2]: 50%
- mortality at 400 ppm [2]: 80%
- RICE BLAST [3]: ++ (++ = 90-100% control at 400 ppm)
- mortality at 200 ppm [4]: 0%
- mortality at 400 ppm [4]: 0%
- LEAF RUST [5]: ++ (++ = 90-100% control at 400 ppm)
- mortality at 12 ppm [6]: 0%
- mortality at 24 ppm [6]: 0%
- mortality at 200 ppm [7]: 0%
- mortality at 400 ppm [7]: 0%
- DOWN MDEW [8]: ++ (++ = 90-100% control at 400 ppm)
- GRAY MOLD [9]: - (- = 0-19% control at 400 ppm)

Structure (SMILES): CC(COc1ncnc2ccccc12)c1cccc(Oc2ccccc2)c1 (stereo not shown) [Example 182, 4-[2-(3-phenoxyphenyl)propoxy]quinazoline]
- POWD MDEW [1]: ++ (++ = 90-100% control at 400 ppm)
- mortality at 200 ppm [2]: 80%
- mortality at 400 ppm [2]: 100%
- RICE BLAST [3]: - (- = 0-19% control at 400 ppm)
- mortality at 200 ppm [4]: 0%
- mortality at 400 ppm [4]: 0%
- LEAF RUST [5]: ++ (++ = 90-100% control at 400 ppm)
- mortality at 12 ppm [6]: 0%
- mortality at 24 ppm [6]: 0%
- mortality at 200 ppm [7]: 0%
- mortality at 400 ppm [7]: 80%
- DOWN MDEW [8]: - (- = 0-19% control at 400 ppm)
- GRAY MOLD [9]: - (- = 0-19% control at 400 ppm)

Structure (SMILES): Fc1cccc2c(OCCc3ccc4ccccc4c3)ncnc12 [Example 66, 8-fluoro-4-[2-(2-naphthyl)ethoxy]quinazoline]
- POWD MDEW [1]: +++ (+++ = 90-100% control at 100 ppm)
- mortality at 400 ppm [2]: 0%
- RICE BLAST [3]: +++ (+++ = 90-100% control at 100 ppm)
- mortality at 400 ppm [4]: 0%
- LEAF RUST [5]: +++ (+++ = 90-100% control at 100 ppm)
- mortality at 24 ppm [6]: 0%
- mortality at 400 ppm [7]: 0%
- DOWN MDEW [8]: +++ (+++ = 90-100% control at 100 ppm)
- GRAY MOLD [9]: - (- = 0-19% control at 400 ppm)

Structure (SMILES): CC(C)c1ccc(CCOc2ncnc3c(F)cccc23)cc1 [Example 16, 8-fluoro-4-[2-[4-(i-propyl)phenyl]ethoxy]-quinazoline]
- POWD MDEW [1]: +++ (+++ = 90-100% control at 100 ppm)
- mortality at 400 ppm [2]: 0%
- RICE BLAST [3]: +++ (+++ = 90-100% control at 100 ppm)
- mortality at 400 ppm [4]: 0%
- LEAF RUST [5]: +++ (+++ = 90-100% control at 100 ppm)
- mortality at 24 ppm [6]: 0%
- mortality at 400 ppm [7]: 0%
- DOWN MDEW [8]: +++ (+++ = 90-100% control at 100 ppm)
- GRAY MOLD [9]: - (- = 0-19% control at 400 ppm)

Structure (SMILES): COc1ccc(CCOc2ncnc3c(F)cccc23)cc1 [Example 132, 8-fluoro-4-[2-(4-methoxyphenyl)ethoxy]quinazoline]
- POWD MDEW [1]: +++ (+++ = 90-100% control at 100 ppm)
- mortality at 200 ppm [2]: 80%
- mortality at 400 ppm [2]: 0%
- RICE BLAST [3]: +++ (+++ = 90-100% control at 100 ppm)
- mortality at 200 ppm [4]: 0%
- mortality at 400 ppm [4]: 0%
- LEAF RUST [5]: +++ (+++ = 90-100% control at 100 ppm)
- mortality at 12 ppm [6]: 0%
- mortality at 24 ppm [6]: 0%
- mortality at 200 ppm [7]: 20%
- mortality at 400 ppm [7]: 0%
- DOWN MDEW [8]: +++ (+++ = 90-100% control at 100 ppm)
- GRAY MOLD [9]: - (- = 0-19% control at 400 ppm)

Structure (SMILES): CC(C)c1ccccc1CCOc1ncnc2c(F)cccc12 [Example 195, 8-fluoro-4-[2-[2-(i-propyl)phenyl]ethoxy]quinazoline]
- POWD MDEW [1]: +++ (+++ = 90-100% control at 100 ppm)
- mortality at 200 ppm [2]: 80%
- mortality at 400 ppm [2]: 0%
- RICE BLAST [3]: +++ (+++ = 90-100% control at 100 ppm)
- mortality at 200 ppm [4]: 0%
- mortality at 400 ppm [4]: 0%
- LEAF RUST [5]: +++ (+++ = 90-100% control at 100 ppm)
- mortality at 12 ppm [6]: 0%
- mortality at 24 ppm [6]: 0%
- mortality at 200 ppm [7]: 0%
- mortality at 400 ppm [7]: 0%
- DOWN MDEW [8]: ++ (++ = 90-100% control at 400 ppm)
- GRAY MOLD [9]: - (- = 0-19% control at 400 ppm)

Structure (SMILES): c1ccc(Oc2cccc(CCOc3ncnc4ccccc34)c2)cc1 [Example 68, 4-[2-(3-phenoxyphenyl)ethoxy]quinazoline]
- POWD MDEW [1]: +++ (+++ = 90-100% control at 100 ppm)
- mortality at 400 ppm [2]: 100%
- RICE BLAST [3]: +++ (+++ = 90-100% control at 100 ppm)
- mortality at 400 ppm [4]: 0%
- LEAF RUST [5]: +++ (+++ = 90-100% control at 100 ppm)
- mortality at 24 ppm [6]: 0%
- mortality at 400 ppm [7]: 90%
- DOWN MDEW [8]: +++ (+++ = 90-100% control at 100 ppm)
- GRAY MOLD [9]: - (- = 0-19% control at 400 ppm)

Structure (SMILES): COc1ccccc1CCOc1ncnc2c(F)cccc12 [Example 131, 8-fluoro-4-[2-(2-methoxyphenyl)ethoxy]quinazoline]
- POWD MDEW [1]: +++ (+++ = 90-100% control at 100 ppm)
- mortality at 400 ppm [2]: 0%
- RICE BLAST [3]: +++ (+++ = 90-100% control at 100 ppm)
- mortality at 400 ppm [4]: 0%
- LEAF RUST [5]: +++ (+++ = 90-100% control at 100 ppm)
- mortality at 24 ppm [6]: 0%
- mortality at 400 ppm [7]: 0%
- DOWN MDEW [8]: +++ (+++ = 90-100% control at 100 ppm)
- GRAY MOLD [9]: - (- = 0-19% control at 400 ppm)

Structure (SMILES): Oc1cccc(CCOc2ncnc3ccccc23)c1 [Example 111, 4-[2-(3-hydroxyphenyl)ethoxy]quinazoline]
- POWD MDEW [1]: - (- = 0-19% control at 400 ppm)
- mortality at 200 ppm [2]: 0%
- mortality at 400 ppm [2]: 0%
- RICE BLAST [3]: ++ (++ = 90-100% control at 400 ppm)
- mortality at 200 ppm [4]: 0%
- mortality at 400 ppm [4]: 0%
- LEAF RUST [5]: + (+ = 20-89% control at 400 ppm)
- mortality at 12 ppm [6]: 0%
- mortality at 24 ppm [6]: 0%
- mortality at 200 ppm [7]: 0%
- mortality at 400 ppm [7]: 0%
- DOWN MDEW [8]: + (+ = 20-89% control at 400 ppm)
- GRAY MOLD [9]: - (- = 0-19% control at 400 ppm)

Structure (SMILES): CC(C)c1ccc(CCCCOc2ncnc3ccccc23)cc1 [Example 168, 4-[4-[4-(i-propyl)phenyl]butoxy]quinazoline]
- POWD MDEW [1]: +++ (+++ = 90-100% control at 100 ppm)
- mortality at 200 ppm [2]: 0%
- mortality at 400 ppm [2]: 80%
- RICE BLAST [3]: +++ (+++ = 90-100% control at 100 ppm)
- mortality at 200 ppm [4]: 0%
- mortality at 400 ppm [4]: 0%
- LEAF RUST [5]: + (+ = 20-89% control at 400 ppm)
- mortality at 12 ppm [6]: 0%
- mortality at 24 ppm [6]: 0%
- mortality at 200 ppm [7]: 0%
- mortality at 400 ppm [7]: 0%
- DOWN MDEW [8]: ++ (++ = 90-100% control at 400 ppm)
- GRAY MOLD [9]: - (- = 0-19% control at 400 ppm)

Structure (SMILES): Fc1ccccc1Oc1ccc(CCOc2ncnc3ccccc23)cc1 [Example 162, 4-(2-[4-(2-fluorophenoxy)phenyl]ethoxy]quinazoline]
- POWD MDEW [1]: +++ (+++ = 90-100% control at 100 ppm)
- mortality at 200 ppm [2]: 80%
- mortality at 400 ppm [2]: 80%
- RICE BLAST [3]: +++ (+++ = 90-100% control at 100 ppm)
- mortality at 200 ppm [4]: 60%
- mortality at 400 ppm [4]: 0%
- LEAF RUST [5]: +++ (+++ = 90-100% control at 100 ppm)
- mortality at 12 ppm [6]: 0%
- mortality at 24 ppm [6]: 100%
- mortality at 200 ppm [7]: 100%
- mortality at 400 ppm [7]: 100%
- DOWN MDEW [8]: +++ (+++ = 90-100% control at 100 ppm)
- GRAY MOLD [9]: - (- = 0-19% control at 400 ppm)
